Measured values taken from US9560851B2, “Pesticidal mixtures including spiroheterocyclic pyrrolidine diones” (Syngenta Participations AG, priority 2012, dated 2017).

Legend:
[1] = tested on: Tetranychus urticae (Two-Spotted Spider Mite); assay: Tetranychus urticae feeding/contact activity, preventive (bean leaf discs); assay type: in vivo; conditions: mobile stages
From the text: Tetranychus urticae (Two-Spotted Spider Mite): feeding/contact activity, preventive
Bean leaf discs on agar in 24-well microtiter plates were sprayed with the DMSO test solutions of certain Mixtures (as provided by Table 45). After drying, the leaf discs were infested with mite populations of mixed ages. 8 days later, discs were checked for mortality against mobile stages.

[2] = tested on: Myzus persicae (Green Peach Aphid); assay: Myzus persicae feeding/residual contact activity, preventive (sunflower leaf discs); assay type: in vivo; conditions: Acetamiprid alone, 6 DAT
Protocol: Myzus persicae (Green Peach Aphid):
feeding/residual contact activity, preventive
Sunflower leaf discs were placed on agar in a 24-well microtiter plate and sprayed with the DMSO test solutions of Mixtures (as provided by Table 45). After drying, the leaf discs were infested with an aphid population of mixed ages. After an incubation period of 6 DAT (days after treatment), samples were checked for mortality.

C/C(=N\C#N)N(C)Cc1ccc(Cl)nc1 [Acetamiprid]
0%: AVERAGE DEAD IN % AFTER 8 DAYS ([1]; Table 47, Acetamiprid alone, 50 PPM AI) | AVERAGE DEAD IN % AFTER 8 DAYS ([1]; Table 47, Acetamiprid alone, 100 PPM AI) | AVERAGE DEAD IN % AFTER 8 DAYS ([1]; Table 47, Acetamiprid alone, 200 PPM AI) | AVERAGE DEAD IN % AFTER 8 DAYS ([1]; Table 47, Acetamiprid alone, 400 PPM AI) | AVERAGE DEAD IN % AFTER 8 DAYS ([1]; Table 47, Acetamiprid alone, 800 PPM AI) | AVERAGE DEAD IN % AFTER 8 DAYS ([1]; Table 48, Acetamiprid alone, 50 PPM AI) | AVERAGE DEAD IN % AFTER 8 DAYS ([1]; Table 48, Acetamiprid alone, 100 PPM AI) | AVERAGE DEAD IN % AFTER 8 DAYS ([1]; Table 48, Acetamiprid alone, 200 PPM AI) | AVERAGE DEAD IN % AFTER 8 DAYS ([1]; Table 48, Acetamiprid alone, 400 PPM AI) | AVERAGE DEAD IN % AFTER 8 DAYS ([1]; Table 48, Acetamiprid alone, 800 PPM AI) | AVERAGE DEAD IN % AFTER 6 DAYS ([2]; 0.1 PPM AI) | AVERAGE DEAD IN % AFTER 6 DAYS ([2]; 0.2 PPM AI) | AVERAGE DEAD IN % AFTER 6 DAYS ([2]; 0.4 PPM AI) | AVERAGE DEAD IN % AFTER 6 DAYS ([2]; 0.8 PPM AI)
27%: AVERAGE DEAD IN % AFTER 6 DAYS ([2]; 1.6 PPM AI)
